Experimental data published in patent US20060128997A1, “New method for the preparation of 1,5-bis(4-hydroxy-3-metoxy-phenyl)-penta-1,4-dien-3-one and derivatives with antitumoral properties” (priority 2003, published 2006).
“And” between values parts separate entries of the source, which are not always exact repeats. Equal entries are not always repeated. “Also recorded” adds a separate entry of the source. Where two headings read alike, the source gives them in different places.

Tests used:
[1] = system: MCF7 (Normal mamma tumor); test: Antiproliferate test in tumoral human cells, sulforrodamina B essay; format: cell-based
Description: (§1) Methodology utilized to perform the antitumoral tests:
(§2) Report of the Antiproliferate Test in Tumoral Human Cells with the Sulforrodamina B Essay
(§3) The cell lines used in the essays, described in the table 1, were maintained in recipients of 25 cm^2 (Nunc®), with 5 mL of culture medium RPMI 1640 supplemented with 5% bovine foetal serum (RPMI/SFB), at 37° C. in atmosphere of 5% of CO2 and 100% of humidity.
(§4) […] of cells in medium RPMI/SFB with 50 μg/mL of Gentamicin were inoculated in its respectives densities of inoculation, in plates of 96 compartments and incubated for 24 hours at 37° C. in atmosphere of 5% of CO2 and 100% of humidity.
(§5) After 24 hours, […] of the test substance were added in the following concentrations of 250; 25; 2.5; 0.2 μg/mL diluted in RPMI/SFB/gentamicin. In this moment the reading of one plate was performed for the determination of the T0 (cell control in the moment of the adding the samples). The other plates were incubated for 48 hours After this period the experiment was paused by adding the trichlorine acetic acid to further determine the protein content by means of […] essay with the sulforrodamina B.
(§6) The stocked solutions were developed by diluting the samples in dimethyl sulfoxide (DMSO) in the concentration of 0.1 g/mL. That solution was diluted by 400 times in RPMI/SFB/gentamicina to be added in the plates of 96 compartments being obtained so the a ideal concentration of DMSO (Skehan e cols. 1990).
(§7) At the end of the test, the plates of 96 compartments were centrifuged for 3 minutes at 2000 rpm, and they were fixed with 50 μL of a solution at 50% of trichloroacetic acid (TCA) at 4° C. To complete the cellular fixation, the plates were incubated for 1 hour at 4° C.
(§8) The plates were submitted to four consecutive washes with distillated water to remore the residues of TCA, medium, SFB and secondary metabolic and maintained at room temperature until the complete drying.
(§9) A coloration was performed by the adding of 50 μL SRB at 0.4% (weight/volume) diluted in acetic acid at 1%, and maintained at 4° C. for 30 minutes. Further, they were washed by 4 consecutive times with a solution of acetic acid 1%. The residue of the washing of the solution was removed and the plates were dried again at room temperature. The colorant linked to the cellular protein was diluted with a solution of Trizma Base (Sigma®) in concentration of […] and pH 10.5 for 5 minutes in ultrasonic bath. The spectrophotometric of absorbancy reading was performed in 560 nm in a micro plates lector (Labsystems Labsystems Multiskan® MCC/340).
(§10) The absorbancy averages were assessed having discounted its respective nulls and by means of the formula shown below was determined the growth inhibition (IC) of each tested sample.
(§11) If T≧T0 but <C, the drug was cytostatic and the formula used is 100×[(T−To)/(C−T0)]
(§12) If T<T0 the drug was cytotoxic and the formula used is […]
(§13) Considering that T is the absorbency average of the treated cell C is the cell control and T0 is the cell control in the addition day.
(§14) The obtained result was subtracted from 100% so obtaining the percentage of growth inhibition. The samples were considered actives since they presented growth inhibition dependant dose higher than 50% and selective lineage, that is, the preferential activity for only one type of tumoral cell or with cytostatic and/or killer cell effect well distinguished among the cell lines.
(§15) All the assays were performed in triplicates so that the presented results make reference to a representative experiment. The standard deflection from the average was always lower than 5%.

NCI460 (Lung tumor) = test: as above; format: cell-based
Description: as §1, §2, §3, §4, §5, §6, §7, §8, §9, §10, §11, §12, §13, §14, §15

[2] = system: NCIADR (Mamma tumor which expresses the phenotype resistance against multiple drugs); test: as above; format: cell-based; details: for growth inhibition of the Mama NCI-ADR cell line, in words: resistance against multiple drugs
Description: as §1, §2, §3, §4, §5, §6, §7, §8, §9, §10, §11, §12, §13, §14, §15

UACC62 (Melanoma) = test: as above; format: cell-based
Description: as §1, §2, §3, §4, §5, §6, §7, §8, §9, §10, §11, §12, §13, §14, §15

[3] = system: all cell lines (nine different types of human cancer); test: Antiproliferate test, sulforrodamina B essay, whole panel of cell lines; format: cell-based; details: for cytostatic / antiproliferate activity (growth inhibition), in words / concentration from which cytostatic activity (growth inhibition) is presented: all cell lines; for concentration from which cytotoxic / killer cell activity (cellular death) is presented: all cell lines of the panel; for selectivity for the studied cell lines, in words: panel of cell lines
Description: as §1, §2, §3, §4, §5, §6, §7, §8, §9, §10, §11, §12, §13, §14, §15

[4] = Acute toxicity test (LD50, body weight, deaths); format: in vivo, albinic swiss mouses; details: for Initial Weight, Average ± dpm / Initial Weight, single animal: beginning of the test; for Final Weight, Average ± dpm / Final Weight, single animal: ending of the test
Description: Also a toxicological test with the sample denominated 37 compound (Acute Toxicity, LD50, via intraperitoneal).
Methodology utilized to perform the toxicological tests:
10 albinic swiss mouses are used, of the male gender, weighting approximately 25 g, for each of the treated groups and control;
Adaptation period: the animals are maintained in the tests room at least for 07 days before the beginning of the essay;
The animals are submitted to fast 12 hours before administering the test substance, done by gavage, at the time the animal's body weight is listed.
After the administration the animals are maintained in observation for a minimum period of 14 days.
The number of death animals for each one of the doses is listed and the LD50 is assessed by Litchfield and Wilcoxon's (1949) method and the animal's body weight is listed at the end of the acute toxicity test.

[5] = cited from earlier work
786-0 (Renal tumor) = test: Antiproliferate test in tumoral human cells, sulforrodamina B essay; format: cell-based
Description: as §1, §2, §3, §4, §5, §6, §7, §8, §9, §10, §11, §12, §13, §14, §15

K-562 (Leukemia) = test: as above; format: cell-based; details: K562
Description: as §1, §2, §3, §4, §5, §6, §7, §8, §9, §10, §11, §12, §13, §14, §15

HT29 (Colon tumor) = test: as above; format: cell-based; details: HT-29
Description: as §1, §2, §3, §4
After 24 hours, […] of the test substance were added in the following concentrations of 250; 25; 2.5; 0.2 μg/mL diluted in RPMI/SFB/gentamicin. In this moment the reading of one plate was performed for the determination of the T0 (cell control in the moment of the adding the samples). […]
A coloration was performed by the adding of 50 μL SRB at 0.4% (weight/volume) diluted in acetic acid at 1%, and maintained at 4° C. for 30 minutes. […] The spectrophotometric of absorbancy reading was performed in 560 nm in a micro plates lector (Labsystems Labsystems Multiskan® MCC/340).
The absorbancy averages were assessed having discounted its respective nulls and by means of the formula shown below was determined the growth inhibition (IC) of each tested sample. […]

OVCAR-3 (Ovary tumor) = test: as above; format: cell-based
Description: as §1, §2, §3, §4, §5, §6, §7, §8, §9, §10, §11, §12, §13, §14, §15

PC-3 (Prostate tumor) = test: as above; format: cell-based; details: PC-03
Description: as §1, §2, §3, §4, §5, §6, §7, §8, §9, §10, §11, §12, §13, §14, §15

SMILES: COc1cc(C=CC(=O)C=Cc2ccc(O)c(OC)c2)ccc1O [Compound 37, 1,5-bis(4-hydroxy-3-methoxyphenyl)-penta-1,4-dien-3-one]
- concentration with cytotoxic activity (cellular death) [1]: ≥ 0.25 µg/mL
- concentration with cytotoxic activity (cellular death) (NCI460 (Lung tumor)): ≥ 0.25 µg/mL
- concentration with cytotoxic activity (cellular death) [2]: ≥ 0.25 µg/mL
- growth inhibition of the Mama NCI-ADR cell line, in words ([2]; listed as 37/01): strong cytostatic activity
- growth inhibition of the Mama NCI-ADR cell line, in words ([2]; listed as our product): inhibited the growth
- concentration with cytotoxic activity (cellular death) (UACC62 (Melanoma)): ≥ 0.25 µg/mL
- cytostatic / antiproliferate activity (growth inhibition), in words [3]: cytostatic activity (growth inhibition) for all cell lines
- concentration from which cytotoxic / killer cell activity (cellular death) is presented [3]: ≥ 0.25 µg/mL
- cytostatic / antiproliferate activity (growth inhibition), in words ([3]; listed as 37/01): cytostatic activity (growth inhibition) in the concentrations evaluated
- Deaths (n), single animal ([4]; 2.5 g/Kg via intraperitoneal): 0
- Initial Weight, Average ± dpm ([4]; 2.5 g/Kg via intraperitoneal): 24.60 ± 2.51 g
- Initial Weight, single animal ([4]; 2.5 g/Kg via intraperitoneal): 24.5 g and 25.4 g (2×) and 24.1 g and 26.6 g and 24.8 g and 22.5 g and 29.7 g and 22.4 g and 20.6 g
- Final Weight, Average ± dpm ([4]; 2.5 g/Kg via intraperitoneal): 27.88 g
- Final Weight, single animal ([4]; 2.5 g/Kg via intraperitoneal): 26.4 g and 28.0 g and 28.6 g and 27.4 g and 29.0 g and 27.8 g and 25.0 g and 31.2 g and 25.4 g and 22.8 g
- Deaths (n), single animal ([4]; 3.0 g/Kg via intraperitoneal): 0 (9×) and 1
- Initial Weight, Average ± dpm ([4]; 3.0 g/Kg via intraperitoneal): 25.47 ± 2.43 g
- Initial Weight, single animal ([4]; 3.0 g/Kg via intraperitoneal): 28.3 g and 30.9 g and 24.6 g and 25.4 g and 25.1 g and 23.2 g and 23.6 g (2×) and 26.0 g and 24.0 g
- Final Weight, Average ± dpm ([4]; 3.0 g/Kg via intraperitoneal): 27.81 g
- Final Weight, single animal ([4]; 3.0 g/Kg via intraperitoneal): 30.3 g and 32.5 g and 25.9 g and 28.0 g and 27.9 g and 25.6 g and 26.0 g and 25.8 g and 28.3 g and Death
- Deaths (n), single animal ([4]; 4.0 g/Kg via intraperitoneal): 0 (9×) and 1
- Initial Weight, Average ± dpm ([4]; 4.0 g/Kg via intraperitoneal): 26.41 ± 3.52 g
- Initial Weight, single animal ([4]; 4.0 g/Kg via intraperitoneal): 29.8 g and 25.5 g and 33.2 g and 25.9 g and 26.3 g and 28.9 g and 26.7 g and 23.3 g (2×) and 21.2 g
- Final Weight, Average ± dpm ([4]; 4.0 g/Kg via intraperitoneal): 28.98 g
- Final Weight, single animal ([4]; 4.0 g/Kg via intraperitoneal): 32.5 g and 26.9 g and 35.9 g and 28.9 g and 29.0 g and 30.2 g and 28.0 g and 25.9 g and 23.5 g and Death
- Deaths (n), single animal ([4]; 5.0 g/Kg via intraperitoneal): 0 (8×) and 1 (2×)
- Initial Weight, Average ± dpm ([4]; 5.0 g/Kg via intraperitoneal): 23.68 ± 1.42 g
- Initial Weight, single animal ([4]; 5.0 g/Kg via intraperitoneal): 24.9 g and 21.0 g and 25.4 g and 22.2 g and 24.0 g and 23.8 g and 22.5 g and 23.5 g and 24.2 g and 25.3 g
- Final Weight, Average ± dpm ([4]; 5.0 g/Kg via intraperitoneal): 25.86 g
- Final Weight, single animal ([4]; 5.0 g/Kg via intraperitoneal): 25.9 g (2×) and 24.0 g and 27.8 g and 25.6 g and 27.0 g and 25.8 g and 24.9 g and Death (2×)
- toxicity classification according to Loomis, in words ([4]; from LD50 (5.0-15 g/Kg = practically nontoxic)): practically nontoxic
- LD50 at 14 days ([4]; male, Swiss albino, mouse, in vivo, ip, acute toxicity, via intraperitoneal, linear regression, 14 days of observation): 8540 mg/kg

SMILES: COc1cccc2c1C(=O)c1c(O)c3c(c(O)c1C2=O)C[C@@](O)(C(=O)CO)C[C@@H]3O[C@H]1C[C@H](N)[C@H](O)[C@H](C)O1 [Doxorubicin, reference compound]
- growth inhibition of the Mama NCI-ADR cell line, in words [2]: does not inhibit the growth; also recorded: did not inhibit the growth
- toxicity, in words ([5]; in vivo): extremely toxic
- LD50 ([5]; species and route not given): 20 mg/kg

SMILES: COc1cc(C=CC(=O)C=Cc2ccc(OC(C)=O)c(OC)c2)ccc1OC(C)=O [EHB1, 1,5-bis(3-metoxy-4-acetoxyphenyl)-penta-1,4-dien-3-one]
- growth inhibition ([2]; NCI-ADR cell line, concentration not clearly stated (from 25 μg/mL)): around 25%
- concentration from which cytostatic activity (growth inhibition) is presented [3]: ≥ 0.25 µg/mL
- concentration from which cytotoxic / killer cell activity (cellular death) is presented [3]: ≥ 25 µg/mL
- selectivity for the studied cell lines, in words [3]: not selective

SMILES: COc1cc(C=CC(=O)C=Cc2ccc(OCC=C(C)C)c(OC)c2)ccc1OCC=C(C)C [HB6, 1,5-Bis[3-metoxy-4-(3-methyl-but-2-eniloxy)phenyl]-penta-1,4-dien-3-one]
- concentration with cytotoxic activity (cellular death) (786-0 (Renal tumor)): 250 µg/mL
- concentration with cytotoxic activity (cellular death) (K-562 (Leukemia)): 250 µg/mL
- concentration with cytotoxic activity (cellular death) ([2]; NCIADR): 250 µg/mL
- concentration with cytotoxic activity (cellular death) (HT29 (Colon tumor)): 250 µg/mL
- concentration from which cytostatic activity (growth inhibition) is presented [3]: ≥ 25 µg/mL
- selectivity for the studied cell lines, in words [3]: cellular selectivity for HT-29 and 786-0 cell lines

SMILES: COc1ccc(C=CC(=O)C=Cc2ccc(OC)c(OC)c2)cc1OC [HBM1, 1,5-Bis(3,4-dimetoxyphenyl)-penta-1,4-dien-3-one]
- concentration with cytotoxic activity (cellular death) (OVCAR-3 (Ovary tumor)): 250 µg/mL
- concentration with cytotoxic activity (cellular death) (PC-3 (Prostate tumor)): 250 µg/mL
- concentration from which cytostatic activity (growth inhibition) is presented [3]: ≥ 0.25 µg/mL
